The text below walks through data of patent US12180200B1, “2-(benzo[d]oxazol-2-yl)-n′-(isonicotinoyloxy)acetimidamide as an antimicrobial compound” (KING FAISAL UNIVERSITY, priority 2023, dated 2024).

Holding throughout (format): cell-based
In test [1] the test system is Bacillus cereus. The test is described as follows: Agar plate disc-diffusion, antibacterial activity. As for the experimental part: (§1) The agar plate disc-diffusion method was applied. […] The discs were then placed onto the surface of agar plates (nutrient agar for bacteria and Sabouraud's dextrose agar for fungi) seeded with the test organism. Each plate contained 15 mL of the agar medium, previously seeded with 0.2 mL of the broth culture of each organism pregrown for 18 hours. The plates were incubated at 37° C. for 48 hours, and 72 hours for fungi. The inhibition zones was measured in mm. Discs impregnated with DMSO were used as a control, and its inhibition zone was subtracted from the tested compound actual inhibition zone.

Test [2] has as its system Escherichia coli. Briefly: Agar plate disc-diffusion, antibacterial activity. As for the experimental part:
as §1

For test [3], the system named is Pseudomonas aeruginosa. Briefly: Agar plate disc-diffusion, antibacterial activity. As for the experimental part: as §1
The subject of test [4] is Staphylococcus aureus. The test is described as follows: Agar plate disc-diffusion, antibacterial activity. As for the experimental part: as §1
(In general: Agar diffusion results depend on both activity and mobility in agar.)

Test [5] concerns Aspergillus flavus. The test is described as follows: Agar plate disc-diffusion, antifungal activity. As for the experimental part:
as §1

Test [6] relates to Chrysosporium keratinophilum. Briefly: Agar plate disc-diffusion, antifungal activity. As for the experimental part:
as §1

For test [7], the system named is different microbes. Briefly: Antimicrobial activity screening (overall statement). Particulars: against different microbes (bacteria and fungi of Tables 1 and 2). As for the experimental part:
The agar plate disc-diffusion method was applied. Sterilized filter papers (6 mm in diameter) were wetted with 10 μL of a solution 2-(benzo[d]oxazol-2-yl)-N′-(isonicotinoyloxy)acetimidamide (3) to be tested, containing 10 mg/mL in DMSO, and the discs were allowed to air dry. The discs were then placed onto the surface of agar plates (nutrient agar for bacteria and Sabouraud's dextrose agar for fungi) seeded with the test organism. Each plate contained 15 mL of the agar medium, previously seeded with 0.2 mL of the broth culture of each organism pregrown for 18 hours. The plates were incubated at 37° C. for 48 hours, and 72 hours for fungi. The inhibition zones was measured in mm. Discs impregnated with DMSO were used as a control, and its inhibition zone was subtracted from the tested compound actual inhibition zone.

Setting [8] is: A = concentration of comp. = 10,000 μL.
Where [9] appears, read: B = concentration of comp. = 30,000 μL.
Setting [10] is: C = concentration of comp. = 50,000 μL.

With `N/C(Cc1nc2ccccc2o1)=N\OC(=O)c1ccncc1` [Compound 3, 2-(benzo[d]oxazol-2-yl)-N′-(isonicotinoyloxy)acetimidamide], the inhibition zone in test [1] (setting [8]) is listed as 25 mm; in test [1] (setting [9]), 27 mm; in test [1] (setting [10]), 36 mm; in test [2] (setting [8]) it was 27 mm; in test [2] (setting [9]) it was 36 mm; in test [2] (setting [10]), 52 mm. Moreover, the inhibition zone came out at 25 mm in test [3] (setting [8]); 29 mm in test [3] (setting [9]); 50 mm in test [3] (setting [10]); 17 mm in test [4] (setting [8]); 24 mm in test [4] (B =); 30 mm in test [4] (setting [10]). Moreover, the inhibition zone in test [5] (setting [8]) is given as 20 mm; in test [5] (setting [9]), 24 mm; in test [5] (setting [10]) it was 35 mm; in test [6] (setting [8]), 26 mm; in test [6] (setting [9]), 29 mm; in test [6] (setting [10]), 48 mm. In addition, in test [7], the antimicrobial activities entry is listed as “excellent antimicrobial activities”.

As for `O=C(O)c1cn(C2CC2)c2cc(N3CCNCC3)c(F)cc2c1=O` [Cip., ciprofloxacin, reference compound], the inhibition zone is on record as 29 mm in test [1] (setting [8]); 30 mm in test [1] (setting [9]); 42 mm in test [1] (setting [10]); 30 mm in test [2] (setting [8]); 39 mm in test [2] (setting [9]); 60 mm in test [2] (setting [10]). Also, the inhibition zone worked out at 29 mm in test [3] (setting [8]); 30 mm in test [3] (setting [9]); 53 mm in test [3] (setting [10]); 43 mm in test [4] (setting [8]); 44 mm in test [4] (B =); 53 mm in test [4] (setting [10]). Also, the inhibition zone in test [5] (setting [8]) is reported as 29 mm; in test [5] (setting [9]), 30 mm; in test [5] (setting [10]) it was 42 mm; in test [6] (setting [8]) it was 29 mm; in test [6] (setting [9]) it was 30 mm; in test [6] (setting [10]), 53 mm.
